Measured values reported in PMC7481482, “Development of Anthraquinone Derivatives as Ectonucleoside Triphosphate Diphosphohydrolase (NTPDase) Inhibitors With Selectivity for NTPDase2 and NTPDase3” (Frontiers in Pharmacology, 2020).
Structures can show the parent of a compound that is named as a salt.

Experiments:
human NTPDase1 = target: T1, human NTPDase1 (Homo sapiens, UniProt P49961); assay: Malachite green assay, human NTPDase1; assay type: biochemical; conditions: 2 μM compound, 50 µM ATP, COS-7 membrane preparation; for inhibition at 2 µM: read-out: % inhibition at 2 μM concentration, NTPDase1
T1 construct: expressed in transfected cells; host or cells: COS-7 cells (membrane preparation)
T1 sequence (P49961 1-510): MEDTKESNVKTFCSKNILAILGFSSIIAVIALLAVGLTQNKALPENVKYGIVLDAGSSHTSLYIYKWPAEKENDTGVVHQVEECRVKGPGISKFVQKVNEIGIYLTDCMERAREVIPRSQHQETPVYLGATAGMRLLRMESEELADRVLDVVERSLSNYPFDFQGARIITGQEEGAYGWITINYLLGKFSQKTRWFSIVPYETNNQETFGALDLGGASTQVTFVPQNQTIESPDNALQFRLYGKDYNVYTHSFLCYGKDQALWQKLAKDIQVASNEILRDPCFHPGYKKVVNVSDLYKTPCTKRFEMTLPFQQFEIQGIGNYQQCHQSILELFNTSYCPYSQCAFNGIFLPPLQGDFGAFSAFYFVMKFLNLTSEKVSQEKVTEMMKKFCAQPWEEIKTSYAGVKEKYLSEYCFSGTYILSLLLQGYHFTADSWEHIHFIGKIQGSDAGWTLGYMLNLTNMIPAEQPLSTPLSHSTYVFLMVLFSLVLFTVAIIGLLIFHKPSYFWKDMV
Method: (§1) Membrane preparations expressing human NTPDase1, -2, -3, or -8, respectively, were obtained as previously described ([Sévigny et al., 1997]; [Cogan et al., 1999]; [Kukulski et al., 2005]; [Lecka et al., 2013]; [Lee et al., 2018]). Enzyme inhibition assays were performed using the malachite green assay in analogy to published procedures with some modifications ([Dou et al., 2018]). The reaction buffer contained 10 mM HEPES, 2 mM CaCl2, and 1 mM MgCl2 (pH 7.4) in a final volume of 50 μL in transparent 96-well half-area plates. The compounds were initially tested at a final concentration of 2 µM using a COS-7-cell membrane preparation expressing the appropriate NTPDase isoenzyme (protein amount: 143 ng for NTPDase1, 175 ng for NTPDase2, 152 ng for NTPDase3, and 175 ng for NTPDase8). Preincubated of the enzyme preparations was perfomred at 37°C in the presence or absence of test compounds with gentle shaking (Eppendorf Thermomixer comfort at 500 rpm) for 5 min. […] ([Kukulski et al., 2005]). After 15 min of incubation at 37°C with gentle shaking, the reaction was stopped by the addition of the detection reagents (20 µL malachite green solution, 0.6 mM, and 30 µL of ammonium molybdate solution, 20 mM, in 1.5 M sulfuric acid). The released inorganic phosphate was quantified after 20 min of gentle shaking at 25°C by measuring the absorption of the malachite green-phosphomolybdate complex at 600 nm using a BMG PheraStar FS plate reader (BMG Labtech GmbH, Ortenberg, Germany). The corrected absorption was calculated by subtracting the absorption of the negative control samples, which were incubated with previously denatured enzyme (90°C, 15 min). Full concentration-inhibition curves were determined with inhibitor concentrations ranging from 0.03 to 30 µM in the presence of 2% DMSO. Inhibition-type experiments were performed with 25, 50, 100, 150 and 200 µM ATP as substrate for NTPDase2 in the presence of inhibitor 20 (0, 0.25, 0.5, and 1 µM) and 25, 50, 100 and 150 µM ATP substrate for NTPDase3 and compound 42 (0.25, 0.5, and 1 µM). For all of the presented data, at least three independent experiments were performed, and IC50 values were calculated by GraphPad Prism 8 software.
(§2) Inhibition of human NTPDases was performed using the malachite green assay, which was established on a robotic system (Z’ factors > 0.70) ([Baykov et al., 1988]; [Fiene et al., 2015]). The malachite green assay enables the detection of the phosphate produced by the enzymatic hydrolysis of nucleotides. A fixed substrate concentration of 50 µM ATP for NTPDase1 and 100 µM for NTPDase2, -3, and -8 was employed. Test compounds were initially screened at a concentration of 2 μM. […] A total of 48 synthesized anthraquinone derivatives including 14 new compounds not previously described in the literature were evaluated for their inhibitory activity at human NTPDase1, -2, -3, and -8 (for results see Table 1).

human NTPDase2 = target: T2, human NTPDase2 (Homo sapiens, UniProt Q9Y5L3); assay: Malachite green assay, human NTPDase2; assay type: biochemical; conditions: 100 µM ATP, COS-7 membrane preparation; for inhibition at 2 µM: read-out: % inhibition at 2 μM concentration, NTPDase2; for IC50: read-out: IC50 ± SEM, NTPDase2
T2 construct: expressed in transfected cells; host or cells: COS-7 cells (membrane preparation)
T2 sequence (Q9Y5L3 1-495): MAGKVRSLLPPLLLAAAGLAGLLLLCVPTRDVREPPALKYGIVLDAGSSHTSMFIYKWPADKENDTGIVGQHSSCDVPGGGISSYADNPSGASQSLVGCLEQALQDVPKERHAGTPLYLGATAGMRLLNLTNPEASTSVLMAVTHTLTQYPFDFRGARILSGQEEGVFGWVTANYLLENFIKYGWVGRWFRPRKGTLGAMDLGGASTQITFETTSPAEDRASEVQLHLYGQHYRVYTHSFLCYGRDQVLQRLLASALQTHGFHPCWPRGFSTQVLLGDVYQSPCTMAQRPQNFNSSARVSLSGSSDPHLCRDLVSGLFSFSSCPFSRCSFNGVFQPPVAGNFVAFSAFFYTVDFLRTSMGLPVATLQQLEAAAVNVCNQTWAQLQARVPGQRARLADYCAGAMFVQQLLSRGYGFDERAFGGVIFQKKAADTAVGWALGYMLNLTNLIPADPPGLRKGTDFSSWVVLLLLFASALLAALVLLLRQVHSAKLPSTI
Method: as §1, §2

human NTPDase3 = target: T3, human NTPDase3 (Homo sapiens, UniProt O75355); assay: Malachite green assay, human NTPDase3; assay type: biochemical; conditions: 100 µM ATP, COS-7 membrane preparation; for IC50: read-out: IC50 ± SEM, NTPDase3; for inhibition at 2 µM: 2 μM compound, read-out: % inhibition at 2 μM concentration, NTPDase3
T3 construct: expressed in transfected cells; host or cells: COS-7 cells (membrane preparation)
T3 sequence (O75355 1-529): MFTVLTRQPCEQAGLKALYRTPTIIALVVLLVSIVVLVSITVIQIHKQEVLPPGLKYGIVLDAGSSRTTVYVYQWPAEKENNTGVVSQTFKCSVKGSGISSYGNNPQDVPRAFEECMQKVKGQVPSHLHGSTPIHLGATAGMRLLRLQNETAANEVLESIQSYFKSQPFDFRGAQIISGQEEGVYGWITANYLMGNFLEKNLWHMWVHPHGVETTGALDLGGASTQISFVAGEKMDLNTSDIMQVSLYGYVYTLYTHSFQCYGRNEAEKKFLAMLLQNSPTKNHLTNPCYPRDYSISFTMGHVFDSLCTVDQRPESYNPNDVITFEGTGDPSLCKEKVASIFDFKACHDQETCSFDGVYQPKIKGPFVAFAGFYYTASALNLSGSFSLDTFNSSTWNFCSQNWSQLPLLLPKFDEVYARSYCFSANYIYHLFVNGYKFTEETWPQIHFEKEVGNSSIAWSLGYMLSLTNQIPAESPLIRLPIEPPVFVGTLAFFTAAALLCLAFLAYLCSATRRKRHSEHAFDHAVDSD
Method: as §1, §2

human NTPDase8 = target: T4, human NTPDase8 (Homo sapiens, UniProt Q5MY95); assay: Malachite green assay, human NTPDase8; assay type: biochemical; conditions: for inhibition at 2 µM: read-out: % inhibition at 2 μM concentration, NTPDase8
T4 construct: expressed in transfected cells; host or cells: COS-7 cells (membrane preparation)
T4 sequence (Q5MY95 1-495): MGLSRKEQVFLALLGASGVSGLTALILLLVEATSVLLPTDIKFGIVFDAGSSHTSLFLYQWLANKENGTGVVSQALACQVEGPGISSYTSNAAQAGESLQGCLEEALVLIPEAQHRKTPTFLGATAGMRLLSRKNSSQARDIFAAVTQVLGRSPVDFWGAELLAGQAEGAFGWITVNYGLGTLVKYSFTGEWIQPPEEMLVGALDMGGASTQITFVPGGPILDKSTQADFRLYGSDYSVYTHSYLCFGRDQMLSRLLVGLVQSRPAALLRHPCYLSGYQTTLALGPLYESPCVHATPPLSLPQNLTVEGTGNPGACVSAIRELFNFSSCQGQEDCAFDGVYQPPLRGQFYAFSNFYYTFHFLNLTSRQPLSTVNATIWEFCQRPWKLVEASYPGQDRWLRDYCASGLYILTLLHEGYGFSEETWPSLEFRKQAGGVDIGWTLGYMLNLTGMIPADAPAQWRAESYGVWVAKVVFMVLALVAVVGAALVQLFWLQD
Method: as §1, §2

[1] = 2 μM compound, 100 µM ATP, COS-7 membrane preparation

| SMILES | melting point [°C] | inhibition at 2 µM (human NTPDase1) [%] | inhibition at 2 µM (human NTPDase2; 2 μM compound) [%] | IC50 (human NTPDase3) [µM] | inhibition at 2 µM (human NTPDase8; [1]) [%] | IC50 (human NTPDase2) [µM] | inhibition at 2 µM (human NTPDase3) [%] | % inhibition at 2 μM concentration, NTPDase1 (human NTPDase1) | % inhibition at 2 μM concentration, NTPDase2 (human NTPDase2; 2 μM compound) | inhibitory activity at NTPDase8 (in words) (human NTPDase8) | % inhibition at 2 μM concentration, NTPDase8 (human NTPDase8; [1]) |
| --- | --- | --- | --- | --- | --- | --- | --- | --- | --- | --- | --- |
| Nc1c(S(=O)(=O)O)cc(Nc2cccc(Br)c2)c2c1C(=O)c1ccccc1C2=O [Compound 22] |  | -4 | 12 | 8.96 ± 1.08 | -26 |  |  |  |  |  |  |
| Nc1cc(Nc2cc(S(=O)(=O)O)c(N)c3c2C(=O)c2ccccc2C3=O)ccc1S(=O)(=O)O [Compound 31] |  | -15 | 1 | 4.26 ± 0.54 | -19 |  |  |  |  |  |  |
| Nc1c(S(=O)(=O)O)cc(Nc2cccc(F)c2)c2c1C(=O)c1ccccc1C2=O [Compound 21] |  | -8 | 15 |  | -1 |  | 0 |  |  |  |  |
| Cc1ccc2ccccc2c1Nc1cc(S(=O)(=O)O)c(N)c2c1C(=O)c1ccccc1C2=O [Compound 16] |  | 3 |  |  | 3 | 5.62 ± 0.72 | -21 |  |  |  |  |
| Nc1c(S(=O)(=O)O)cc(NCCc2ccccc2)c2c1C(=O)c1ccccc1C2=O [Compound 13] |  | -12 | 12 |  | -3 |  | -3 |  |  |  |  |
| Nc1c(S(=O)(=O)O)cc(Nc2ccc3cc(C(=O)O)ccc3c2)c2c1C(=O)c1ccccc1C2=O [Compound 19] |  | 0 | 13 | 4.72 ± 0.4 | -35 |  |  |  |  |  |  |
| Nc1c(S(=O)(=O)O)cc(Nc2ccc(Nc3nc(Cl)nc(Nc4cccc(S(=O)(=O)O)c4)n3)c(S(=O)(=O)O)c2)c2c1C(=O)c1ccccc1C2=O [Compound 5, reactive blue-2, reference compound] |  |  |  | 0.942 ± 0.024 |  |  |  | (17) % | (42) % | inactive | (-8) % |
| Nc1c(S(=O)(=O)O)cc(Nc2cccc([N+](=O)[O-])c2)c2c1C(=O)c1ccccc1C2=O [Compound 24] |  | -32 | 19 | 15.3 ± 2.5 | 3 |  |  |  |  |  |  |

The next lines start with results.

| melting point [°C] | inhibition at 2 µM (human NTPDase1) [%] | inhibition at 2 µM (human NTPDase2; 2 μM compound) [%] | IC50 (human NTPDase3) [µM] | inhibition at 2 µM (human NTPDase8; [1]) [%] | IC50 (human NTPDase2) [µM] | inhibition at 2 µM (human NTPDase3) [%] | SMILES | % inhibition at 2 μM concentration, NTPDase1 (human NTPDase1) | % inhibition at 2 μM concentration, NTPDase2 (human NTPDase2; 2 μM compound) | inhibitory activity at NTPDase8 (in words) (human NTPDase8) | % inhibition at 2 μM concentration, NTPDase8 (human NTPDase8; [1]) |
| --- | --- | --- | --- | --- | --- | --- | --- | --- | --- | --- | --- |
| > 300 |  |  |  |  |  |  | Nc1c(S(=O)(=O)O)cc(Nc2ccc(Sc3ccccc3)c(Cl)c2)c2c1C(=O)c1ccccc1C2=O (as salt: sodium) [Compound 48, Sodium 1-amino-4-(3-chloro-4-phenylsulfanyl)-phenylamino-9,10-dioxo-9,10-dihydroanthracene-2-sulfonate] |  |  |  |  |
|  | 38 |  |  | 17 | 1.13 ± 0.27 | 34 | Cc1ccc(C)c(Sc2ccc(Nc3cc(S(=O)(=O)O)c(N)c4c3C(=O)c3ccccc3C4=O)cc2)c1 [Compound 50] |  |  |  |  |
|  | 33 |  |  | 10 | 1.73 ± 0.29 | 21 | Nc1c(S(=O)(=O)O)cc(Nc2ccc(Oc3ccc(Br)cc3)cc2)c2c1C(=O)c1ccccc1C2=O [Compound 46] |  |  |  |  |
|  | 2 |  |  | -1 | 5.45 ± 0.7 | 9 | Cc1cc(Cl)ccc1Nc1cc(S(=O)(=O)O)c(N)c2c1C(=O)c1ccccc1C2=O [Compound 38] |  |  |  |  |
|  | -4 | 7 |  | -2 |  | -2 | Cc1cc(Nc2cccc(F)c2)c2c(c1N)C(=O)c1ccccc1C2=O [Compound 54] |  |  |  |  |
|  | 46 |  |  | 27 | 1.28 ± 0.34 | 36 | Cc1ccc(Sc2ccc(Nc3cc(S(=O)(=O)O)c(N)c4c3C(=O)c3ccccc3C4=O)cc2)c(C)c1 [Compound 49] |  |  |  |  |
|  | 51 |  |  | 27 | 0.832 ± 0.053 | 44 | Cc1ccc(Sc2ccc(Nc3cc(S(=O)(=O)O)c(N)c4c3C(=O)c3ccccc3C4=O)cc2)cc1C [Compound 51] |  |  |  |  |
|  | 36 |  | 13.1 ± 1.65 | 28 | 3.59 ± 0.85 |  | Nc1c(S(=O)(=O)O)cc(Nc2cccc(Cc3ccccc3)c2)c2c1C(=O)c1ccccc1C2=O [Compound 39] |  |  |  |  |
|  | 7 |  |  | 3 | 1.32 ± 0.05 | 3 | Nc1c(S(=O)(=O)O)cc(Nc2ccc(Cc3ccccc3)cc2)c2c1C(=O)c1ccccc1C2=O [Compound 43] |  |  |  |  |
